Holding throughout (format): cell-based
One test addresses T1, TALK-2 (Homo sapiens, UniProt Q96T54).
T1 construct: gene KCNK17
T1 sequence (Q96T54 1-332): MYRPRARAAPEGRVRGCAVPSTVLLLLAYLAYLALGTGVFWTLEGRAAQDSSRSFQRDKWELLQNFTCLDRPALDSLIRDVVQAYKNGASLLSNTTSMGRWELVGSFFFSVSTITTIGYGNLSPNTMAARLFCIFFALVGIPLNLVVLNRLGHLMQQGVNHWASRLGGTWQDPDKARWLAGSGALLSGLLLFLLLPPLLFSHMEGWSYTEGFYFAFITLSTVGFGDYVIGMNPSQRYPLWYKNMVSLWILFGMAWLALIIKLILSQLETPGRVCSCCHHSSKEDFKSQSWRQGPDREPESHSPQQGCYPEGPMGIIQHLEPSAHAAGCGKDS
Put plainly: two-electrode voltage clamp in Xenopus laevis oocytes, […] ranolazine.

Another test addresses T2, TALK-1 (Homo sapiens, UniProt Q96T55).
T2 construct: gene KCNK16
T2 sequence (Q96T55 1-309): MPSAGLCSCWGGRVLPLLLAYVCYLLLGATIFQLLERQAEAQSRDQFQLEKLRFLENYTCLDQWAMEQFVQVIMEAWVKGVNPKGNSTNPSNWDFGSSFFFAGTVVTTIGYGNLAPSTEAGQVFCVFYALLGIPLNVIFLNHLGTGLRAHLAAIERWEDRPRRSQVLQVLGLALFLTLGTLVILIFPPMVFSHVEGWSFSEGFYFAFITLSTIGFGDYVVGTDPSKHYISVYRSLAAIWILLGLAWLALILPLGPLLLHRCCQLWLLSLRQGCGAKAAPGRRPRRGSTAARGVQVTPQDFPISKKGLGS
Described as above.

The target of the next test is T3, TASK-2 (Homo sapiens, UniProt O95279).
T3 construct: gene KCNK5
T3 sequence (O95279 1-499): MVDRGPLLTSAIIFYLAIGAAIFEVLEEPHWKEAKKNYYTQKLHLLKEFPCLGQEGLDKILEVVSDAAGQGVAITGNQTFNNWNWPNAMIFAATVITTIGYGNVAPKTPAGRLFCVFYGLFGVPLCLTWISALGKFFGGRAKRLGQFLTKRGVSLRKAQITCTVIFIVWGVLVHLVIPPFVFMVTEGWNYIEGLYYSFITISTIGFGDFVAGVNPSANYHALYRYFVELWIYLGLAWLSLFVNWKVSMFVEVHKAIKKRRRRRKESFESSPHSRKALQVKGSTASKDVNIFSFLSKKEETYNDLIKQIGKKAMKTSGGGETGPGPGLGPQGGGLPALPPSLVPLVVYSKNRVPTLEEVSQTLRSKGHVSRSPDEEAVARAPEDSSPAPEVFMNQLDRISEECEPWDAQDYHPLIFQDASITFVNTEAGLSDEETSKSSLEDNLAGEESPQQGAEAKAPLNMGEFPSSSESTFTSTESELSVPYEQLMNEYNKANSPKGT
The description is as above.

For the next test, the target named is T4, TASK-3 (Homo sapiens, UniProt Q9NPC2).
T4 construct: gene KCNK9
The description is as above.

Another test has as its target T5, TASK-1 (Homo sapiens, UniProt O14649).
T5 construct: gene KCNK3
Put plainly: whole-cell patch clamp in CHO cells; two-electrode voltage clamp in Xenopus laevis oocytes; pore mutagenesis. On the technique in general: Patch clamp records ionic current or voltage across a cell membrane.

T5 sequence (O14649 whole entry): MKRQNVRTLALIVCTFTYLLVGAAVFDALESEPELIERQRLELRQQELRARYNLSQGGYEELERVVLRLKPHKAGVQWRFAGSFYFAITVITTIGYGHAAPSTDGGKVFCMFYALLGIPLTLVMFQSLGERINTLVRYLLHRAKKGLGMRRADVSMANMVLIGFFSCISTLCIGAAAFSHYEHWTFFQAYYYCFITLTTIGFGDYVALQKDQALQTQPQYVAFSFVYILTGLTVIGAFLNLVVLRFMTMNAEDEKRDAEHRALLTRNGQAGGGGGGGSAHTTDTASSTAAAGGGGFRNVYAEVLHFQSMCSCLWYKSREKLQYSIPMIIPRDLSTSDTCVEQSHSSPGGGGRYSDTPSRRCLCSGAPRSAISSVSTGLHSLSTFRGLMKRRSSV
T4 sequence (Q9NPC2 whole entry): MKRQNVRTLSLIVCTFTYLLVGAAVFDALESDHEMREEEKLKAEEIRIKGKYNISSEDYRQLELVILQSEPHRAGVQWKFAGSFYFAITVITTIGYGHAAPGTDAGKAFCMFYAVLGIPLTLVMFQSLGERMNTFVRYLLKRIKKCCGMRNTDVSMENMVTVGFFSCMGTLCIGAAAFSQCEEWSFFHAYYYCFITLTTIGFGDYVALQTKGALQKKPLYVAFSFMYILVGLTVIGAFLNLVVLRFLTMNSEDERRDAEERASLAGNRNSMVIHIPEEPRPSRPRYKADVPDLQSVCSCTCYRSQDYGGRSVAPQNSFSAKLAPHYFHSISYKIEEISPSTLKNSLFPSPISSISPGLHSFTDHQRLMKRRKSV

As for `COc1ccccc1OCC(O)CN1CCN(CC(=O)Nc2c(C)cccc2C)CC1` (centres unmarked) [ranolazine], the inhibition (commonly the change of the read-out against control, counted positive when it falls) at 300 µM turned out to be 34.9% against TALK-2, 23% on TALK-1, 30% on TASK-2 and 28.3% at TASK-3. The IC50 – broadly, the concentration that inhibits the measured activity by half – on TASK-1 amounted to 30.6 µM.

The record behind these values is paper PMC6988797, “Antiarrhythmic Properties of Ranolazine: Inhibition of Atrial Fibrillation Associated TASK-1 Potassium Channels” (Frontiers in Pharmacology, 2019).
